# Legend:
# [1] = system: DAOY cells stably expressing green fluorescent protein (GFP)-luciferase; assay: Orthotopic intracranial tumor xenograft, bioluminescence imaging and survival
# Protocol: For in vivo studies, orthotopic intracranial transplantation of the scrambled and miR-584-5p-transfected DAOY cells stably expressing green fluorescent protein (GFP)-luciferase was performed. […] The p-values were determined by the sum-of-squares F test. Error bars represent mean±SEM. […] The p-value was determined using the log-rank (Mantel-Cox) test. Error bars represent SE. ****, p<0.0001; ***, p<0.001.
# Animals and intracranial xenografts. Athymic nude mice (nu/nu) were obtained from Harlan, USA. Three- to 5-week-old athymic nude mice (nu/nu) were anesthetized using isoflurane by inhalation. Using a Hamilton syringe, 1 million cells were stereotactically implanted into the right corpus striatum at a depth of 3.5 mm at a point 2.5 mm lateral to the midline and 1.5 mm anterior to the bregma. After the surgery, the animal recovered on a heating pad in a normal mouse cage to maintain its body temperature at 37°-37.2° C. An ocular lubricating ointment (AKORN) was administered until spontaneous blinking resumed. Starting from week 2, control group animals received dimethyl sulfoxide, whereas VCR group animals received 1 mg of VCR (Sigma-Aldrich) per kg of body weight intraperitoneally once per week for 6 weeks. The Xenogen Small-Animal Imaging System was used for subcellular imaging in live mice once per week. Animals were killed, and brains were fixed and analyzed.
# MB cells = assay: FACS analysis of cell cycle progression; format: cell-based; conditions: vs miR-NC or scramble-siRNA
# Protocol: To gain more insight into the tumor-suppressing and VCR-sensitizing activities of miR-584-5p, it was determined how the miR-584-5p mimic affected cell cycle progression of MB cells. […] Bar graphs show DNA histograms quantified using the FlowJo software. In FIG. 9A, the p-values were determined by two-way ANOVA followed by Tukey's multiple-comparisons test. Error bars represent mean±SEM. […] In FIG. 9B, the p-values were calculated using standard Student t-tests. Error bars represent mean±SEM. […] Next, it was determined whether miR-584-5p's effect on cell cycle progression may be mediated via its target genes eIF4E3/HDAC1. […] Bar graphs show dot plots quantified using the FlowJo software. Next, it was tested whether miR-584-5p-induced cell cycle arrest led to apoptosis of MB cells. […] In FIG. 8C, the bar graphs reflect DNA histograms quantified using the FlowJo software and in FIG. 8D and FIG. 9C, the bar graphs show dot plots quantified using the FlowJo software. The p-values for panels 8A-D and FIG. 9C were determined by two-way ANOVA followed by Tukey's multiple-comparisons test. Error bars represent mean±SEM. ****, p<0.0001; ***, p<0.001; **, p<0.01; *, p<0.05.
# Flow cytometry analysis of cell cycle and apoptosis. […] Cells were analyzed using either FACScantoII or LSRII cytometers, and data were quantified using FlowJo 10.2 software.
# [2] = system: TUBB3, TUBB2a, and TUBB2b; assay: qPCR analysis of β-tubulin isotypes; format: cell-based; conditions: miR-584-5p-overexpressing cells
# Protocol: DNA is stained with DAPI (blue), whereas spindle is stained with β-tubulin (red) (below).
# VCR disrupts the integrity of the mitotic spindle and destabilizes microtubules (George, P., Journey, L. J. & Goldstein, M. N. J Natl Cancer Inst 35, 355-375 (1965)). Therefore, it was tested whether miR-584-5p and its target genes might affect microtubule dynamics. First, expression of tubulins was deteremined because VCR resistance has been associated with altered expression of tubulin isotypes (Sirotnak, F. M., Danenberg, K. D., Chen, J., Fritz, F. & Danenberg, P. V. Biochem Biophys Res Commun 269, 21-24, (2000)). […] In FIG. 12A, the p-values were calculated using standard Student t-tests. Error bars represent mean±SEM. ****, p<0.0001. […] The p-values were calculated using standard Student t-tests. Error bars represent mean±SEM. To further test how miR-584-5p and its target genes affect spindle integrity, immunofluorescence analysis was performed on miR-584-5p-overexpressing or eIF4E3/HDAC1-silenced MB cells. […] In FIG. 11F, the p-values were calculated using standard Student t-tests. Error bars represent mean±SEM. […] In FIG. 11H, The p-values were calculated using standard Student t-tests. Error bars represent mean±SEM. ****, p<0.0001; ***, p<0.001; **, p<0.01; *, p<0.05. Quantitative real-time PCR. Total RNA was extracted using miRNAeasy kit (Qiagen). […]
# PGC-1α = assay: qRT-PCR of PGC-1α expression; format: cell-based; conditions: miR-584-5p-treated MB cells
# Excerpt: One such gene is peroxisome proliferator-activated receptor gamma coactivator 1-α, which codes for PGC-1α protein, which HDAC1 inhibits in brown adipocytes (Li, F. et al. J Biol Chem 291, 4523-4536, (2016)). The results disclosed herein reveal that PGC-1α expression is increased in miR-584-5p-treated MB cells (FIG. 10). […] The data in FIG. 10 represent Log 2 ratio tumor/cerebellum control. Data mined from GSE28245. ***, p<0.001; ** , p<0.01; * , p<0.05.
# VCR disrupts the integrity of the mitotic spindle and destabilizes microtubules (George, P., Journey, L. J. & Goldstein, M. N. J Natl Cancer Inst 35, 355-375 (1965)). Therefore, it was tested whether miR-584-5p and its target genes might affect microtubule dynamics. First, expression of tubulins was deteremined because VCR resistance has been associated with altered expression of tubulin isotypes (Sirotnak, F. M., Danenberg, K. D., Chen, J., Fritz, F. & Danenberg, P. V. Biochem Biophys Res Commun 269, 21-24, (2000)). […] In FIG. 12A, the p-values were calculated using standard Student t-tests. Error bars represent mean±SEM. ****, p<0.0001. […] The p-values were calculated using standard Student t-tests. Error bars represent mean±SEM. […] In FIG. 11F, the p-values were calculated using standard Student t-tests. […] In FIG. 11H, The p-values were calculated using standard Student t-tests. […] Quantitative real-time PCR. […]
# eIF4E3 = assay: qPCR and Western blot of eIF4E3 in MB cells; format: cell-based; conditions: transcript and protein levels, all cell lines tested
substance,measurement,setting,value
miR-584-5p: microRNA mimic; nucleotide sequence UUAUGGUUUGCCUGGGACUGAG (SEQ ID NO: 1); purchased from Thermofisher (chemistry not given here),MB tumor growth,"[1]; transfected DAOY cells, in comparison with scrambled-transfectant tumor",dramatically reduced MB growth
same,survival of mice,"[1]; vs scrambled-transfectant group, Kaplan-Meier",lived significantly longer
same,cell cycle progression,MB cells,G2/M cell cycle arrest
same,"transcript levels of TUBB3, TUBB2a, and TUBB2b",[2],significantly reduced transcript levels
same,PGC-1α expression,PGC-1α,increased
same,expression of eIF4E3,eIF4E3,significantly reduced expression
